Reference: patent publication US8563258B2, “Allergy test based on flow cytometric analysis” (Buhlmann Laboratories AG, priority 2007, dated 2013)
Read-outs that look alike come from different tables or passages of the source.

What was measured:
basophilic cells = settings: for MFI-CCR3 shift (cytotoxic concentration): human
Excerpt: In Protocol 1 anti-IgE-FITC is used as the basophil selection marker, whereas in Protocol 2 anti-CCR3-PE is used.

blood basophils = settings: 21 normal blood donors
Protocol: Therefore, we established two protocols, one with diluted whole blood, wherein the EDTA blood sample is diluted 1 in 4 with cellular incubation buffer (the Stimulation Buffer) and another with purified blood, wherein the basophils were transferred from its plasma matrix to a plasma-free matrix such as the cellular incubation buffer by centrifuging and washing the blood cells.

basophils [1] = system: basophils
Excerpt: Peripheral blood leukocytes are isolated from patients' whole blood samples and primed with Stimulation Buffer containing interleukin 3 (IL-3). […] During this activation intracellular compounds containing the transmembrane protein CD63 are fused to the cellular membrane and therefore exposed to the extracellular matrix.
A highly specific monoclonal antibody (mAb) recognizing the high affinity IgE binding receptor (FcεRI) is used as a positive control, leading to the activation of the basophils by mimicking the bridging event.
After stopping the reaction the Staining Reagent is added containing a mixture of monoclonal antibodies to human CD63 labeled with phycoerythrin (anti-CD63-PE) and to human IgE labeled with fluorescein isothiocyanate (anti-IgE-FITC). The remaining erythrocytes are removed by a lysing reaction and after blocking the reaction the cells are analyzed by flow cytometry.
Mix the anti-coagulated blood sample by inverting the venipuncture tube several times. Centrifuge the venipuncture tube for 5 minutes at 200×g. After the centrifugation step, two phases can be observed from top to the bottom of the tube: • i) plasma fraction containing the leukocytes • ii) erythrocyte fraction • Alternative procedure for cell separation: • Mix the anti-coagulated blood sample by inverting the venipuncture tube several times. • Let the samples sediment (erythrocytes) at room temperature for one hour. Collect the upper phase (plasma fraction containing the leukocytes) and continue with step 2. • If the erythrocytes sedimentation is not complete after one hour of incubation, the centrifugation step above is recommended. • 2. Collect the plasma fraction with the leukocytes on the top of the erythrocytes with a disposable plastic syringe or plastic pipette and transfer it into a fresh and pyrogen-free 5 ml polypropylene or polystyrene tube. • NOTE: Because of the low amount of basophils in the leukocyte fraction it is important to collect the entire plasma fraction. […] Centrifuge for 10 minutes at 500×g. Completely remove the plasma fraction on the top of the cell pellet with a pipette. • 4. Add 100 μl of Stimulation Buffer per ml of blood used at the beginning (i.e. for 5 ml blood sample used, the pellet has to be solved with 500 μl of Stimulation Buffer). Resuspend the leukocytes pellet carefully. • 5a. For each patient, label pyrogen-free polystyrene tubes suited for Flow Cytometry measurements (e.g., PB=patient background=negative control, PC=stimulation control with anti-FcεRI Ab, A1-1 for antigen 1 with dilution 1, A1-2 for allergen 1 with dilution 2, etc.) or use tissue culture grade microtiter plates. • 5b. Pipet 50 μl of Stimulation Buffer (background 0 negative control) into the PB tube of each patient. • 5c. Pipet 50 μl of Stimulation Control into the PC tube of each patient. • 5d. Pipet 50 μl of Allergen (=test substance) into the corresponding patient tubes. • 6. Pipet 50 μl of each patient's cell suspension into the corresponding tubes. • 7. Vortex gently, cover the tubes and incubate for 40±5 minutes at 37° C. in a water bath. • 8. Add 50 μl of cold Blocking Buffer to each tube. • 9. Add 20 μl of cold Staining Reagent to each tube. Vortex gently. • 10. Incubate for 30±5 minutes at 2-8° C. • 11. Vortex gently the sedimented cells, add 3.5 ml of pre-warmed (18-28° C.) Lysing Reagent to each tube and incubate for 5±1 minutes at 18-28° C. • 12. Stop the reaction with 1 ml of Blocking Buffer. • 13. Centrifuge for 5 minutes at 1000-1200×g. • 14. Decant or aspirate the supernatant and resuspend the cell pellet with 500 μl of Blocking Buffer. Vortex gently. • 15. Proceed to the analysis by Flow Cytometry within 2 hours.
Flow cytometric analysis can be performed on any flow cytometer containing a 488 nm argon laser (blue-green excitation light) and the corresponding software.

basophils [2] = experiment: Alternative use of FcεRI instead of IgE as basophil selection/activation marker (Example 7); assay type: cell-based, human; settings: for MFI Activation Index (anti-FcεRI-AF647 and anti-IgE-AF647): Amoxicillin allergic patient

`COc1ccc2cc([C@H](C)C(=O)O)ccc2c1` [Naproxen] was tested, and the “MFI-CCR3 shift (cytotoxic concentration)” value (basophilic cells; 1 mg/ml) was “clearcut downregulation of MFI-CCR3”, the “MFI-CCR3 shift (cytotoxic concentration)” value (basophilic cells; 5 mg/ml) was “clearcut downregulation of MFI-CCR3” and the “unspecific stimulatory effects on basophils” value (blood basophils; 1 mg/ml, washed blood cells) was “unspecific stimulatory effects”. For the same compound, the “cytotoxic effects on blood basophils” value (blood basophils; 5 mg/ml, all blood preparation methods) was “cytotoxic effects”.
For `CC(C)Cc1ccc(C(C)C(=O)O)cc1` (stereo not shown) [Ibuprofen], the “combined MFI-IgE/CD63 Activation Index” value (basophils [1]; Patient 8) was “positive results”, the CD63 expression (basophils [1]; Patient 9) was “clearcut reaction” and the “combined MFI-IgE/CD63 Activation Index” value (basophils [1]; Patient 9) was “clearcut reaction”.
For `CSCC[C@H](NC=O)C(=O)N[C@@H](CC(C)C)C(=O)N[C@@H](Cc1ccccc1)C(=O)O` [fMLP, N-formyl-L-methionyl-L-leucyl-L-phenylalanine], the “stimulation yield as alternative positive control” value (basophils [2]; compared with anti-FcεRI mAb) was “lower stimulation yields than anti-FcεRI mAb”.
In the case of `O=C(O)Cc1ccccc1Nc1c(Cl)cccc1Cl` [Diclofenac], the CD63 expression (basophils [1]; Patient 9) is reported as “clearcut reaction” and the “combined MFI-IgE/CD63 Activation Index” value (basophils [1]; Patient 9) is reported as “clearcut reaction”.
`CC(=O)Oc1ccccc1C(=O)O` [Aspirin] was tested, and the “MFI-CCR3 shift (cytotoxic concentration)” value (basophilic cells; 5 mg/ml) was “clearcut downregulation of MFI-CCR3”, the “combined MFI-IgE/CD63 Activation Index” value (basophils [1]; Patient 8) was “positive results” and the CD63 expression (basophils [1]; Patient 9) was “clearcut reaction”. The “combined MFI-IgE/CD63 Activation Index” value (basophils [1]; Patient 9) was “clearcut reaction”.
For `CC1(C)S[C@@H]2[C@H](NC(=O)[C@H](N)c3ccc(O)cc3)C(=O)N2[C@H]1C(=O)O` [Amoxicillin], the “CCR3 positive cells after stimulation” value (basophilic cells; 2 mg/ml, CCR3 selection marker) was “can still be easily identified”, the “IgE positive basophilic cells after stimulation” value (basophilic cells; 2 mg/ml, IgE selection marker) was “disappearing” and the “result of all methods tested (CD63 expression, combined Activation Index, spIgE, skin test)” value (basophils [1]; Patient 4 (control subject)) was “negative result”. For the same compound, the “combined MFI-IgE/CD63 Activation Index” value (basophils [1]; Patient 5) was “positive result”, the CD63 expression (basophils [1]; Patient 5, cutoff 5% plus SI≧2) was “negative” and the “MFI Activation Index (anti-FcεRI-AF647 and anti-IgE-AF647)” value (“MFI Activation Index” for short) (basophils [2]; 0.04 mg/ml (C3)) was “negative”. The “MFI Activation Index” value (basophils [2]; 0.2 mg/ml (C2)) was “intermediate” and the “MFI Activation Index” value (basophils [2]; 1 mg/ml (C1)) was “strong activation”.
